Test results from patent publication US10556943B2, “HLA-DR binding peptides and their uses” (priority 2007, dated 2020).
Read-outs that look alike come from different tables or passages of the source. Each block holds one compound with its values, some of them ahead of it. Ends that are not written are not given here.

Experiments:
[1] = biological target: T1, purified HLA DRB3*0101 (Homo sapiens, UniProt P01903+P79483); assay: HLA-DR radioligand binding inhibition assay, DRB3*0101
T1 construct: MHC molecules utilized were purified from EBV transformed homozygous cell lines or single MHC allele transfected 721.221, C1R, or fibroblast lines; made in house; host or cells: EBV transformed homozygous cell lines or single MHC allele transfected 721.221, C1R, or fibroblast lines
Experimental: (§1) Fifteen distinct HLA-DR molecules were used in quantitative assays to measure the binding of peptides to solubilized HLA-DR molecules. […] Briefly, columns of inactivated Sepharose CL4B and Protein A Sepharose were used as pre-columns. HLA-DR molecules were captured by passage of lysates over LB3.1 monoclonal antibody (anti-HLA-DRA) columns. Antibody columns were washed with 10 mM Tris-HCL, pH8.0 with 1% (v/v) NP-40, followed by PBS containing 0.4% (w/v) n-octylglucoside. […] The pH was reduced to 8.0 and the eluates were concentrated by centrifugation in Centriprep 30 concentrators at 2000 rpm (Amicon, Beverly, Mass.).
(§2) Briefly, 1-10 nM of radiolabeled peptide was co-incubated for 2 days at either room temperature or 37° C. with 1 μM to 1 nM purified HLA-DR molecules in the presence of a cocktail of protease inhibitors. Assays were performed at various pH conditions, ranging from pH 4 to pH 7. […] After incubation, the percentage of HLA-DR-bound radioactivity is determined by capturing HLA-DR/peptide complexes on Optiplates (Packard Instruments, Meriden, Conn.) coated with the LB3.1 antibody and determining bound counts per minute using the TopCount microscintillation counter (Packard Instruments). […] Competitor peptides are tested in 2-4 complete, independent experiments, at concentrations ranging from 30 μg/mL to 300 pg/mL.

[2] = biological target: T2, purified HLA DRB5*0101 (Homo sapiens, UniProt P01903+Q30154); assay: HLA-DR radioligand binding inhibition assay, DRB5*0101
T2 construct: MHC molecules utilized were purified from EBV transformed homozygous cell lines or single MHC allele transfected 721.221, C1R, or fibroblast lines; made in house; host or cells: EBV transformed homozygous cell lines or single MHC allele transfected 721.221, C1R, or fibroblast lines
Experimental: as §1, §2

[3] = biological target: T3, purified HLA DRB1*1101 (Homo sapiens, UniProt P01903+P01911, A100R/A169T/A87E/I96F/K41T/L162R/M171V/P40S/Q125H/Q178H/Q39Y/Q99D/R42S/S66Y/T262R/V115G/W38E); assay: HLA-DR radioligand binding inhibition assay, DRB1*1101
T3 construct: MHC molecules utilized were purified from EBV transformed homozygous cell lines or single MHC allele transfected 721.221, C1R, or fibroblast lines; made in house; host or cells: EBV transformed homozygous cell lines or single MHC allele transfected 721.221, C1R, or fibroblast lines
T3 sequence (P01903 26-254, other chains not shown): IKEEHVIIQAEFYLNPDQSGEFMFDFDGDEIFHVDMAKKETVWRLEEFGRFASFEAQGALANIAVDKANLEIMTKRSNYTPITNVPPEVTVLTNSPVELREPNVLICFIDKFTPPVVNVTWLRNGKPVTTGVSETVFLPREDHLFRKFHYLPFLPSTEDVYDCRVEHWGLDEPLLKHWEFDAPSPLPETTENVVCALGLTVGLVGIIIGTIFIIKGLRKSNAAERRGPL
Experimental: as §1, §2

[4] = biological target: T4, purified HLA DRB1*0404 (Homo sapiens, UniProt P01903+P01911, A100R/A169T/F76Y/I96L/K127E/L162R/M171V/N62H/P40V/Q125Y/R42H/S133A/S149N/S66Y/V209L/W38E); assay: HLA-DR radioligand binding inhibition assay, DRB1*0404
T4 construct: MHC molecules utilized were purified from EBV transformed homozygous cell lines or single MHC allele transfected 721.221, C1R, or fibroblast lines; made in house; host or cells: EBV transformed homozygous cell lines or single MHC allele transfected 721.221, C1R, or fibroblast lines
Experimental: as §1, §2

[5] = biological target: T5, purified HLA DRB1*0405 (Homo sapiens, UniProt P01903+P01911, A100R/A169T/D86S/F76Y/I96L/K127E/L162R/M171V/N62H/P40V/Q125Y/R42H/S133A/S149N/S66Y/V115G/V209L/W38E); assay: HLA-DR radioligand binding inhibition assay, DRB1*0405; settings: read-out: IC50 to purified HLA DRB1*0405; purified HLA DRB1*0405
T5 construct: MHC molecules utilized were purified from EBV transformed homozygous cell lines or single MHC allele transfected 721.221, C1R, or fibroblast lines; made in house; host or cells: EBV transformed homozygous cell lines or single MHC allele transfected 721.221, C1R, or fibroblast lines
Experimental: as §1, §2

[6] = biological target: T6, purified HLA DRB1*0701 (Homo sapiens, UniProt P01903+P01911, A100R/A102G/A103Q/D57E/D86V/E43K/F76Y/K127E/L162R/M171V/P40G/Q125H/Q99D/R33Q/R42Y/R54Q/S133A/S66F/T210M/V115G/Y107V/Y59L/Y89S); assay: HLA-DR radioligand binding inhibition assay, DRB1*0701
T6 construct: MHC molecules utilized were purified from EBV transformed homozygous cell lines or single MHC allele transfected 721.221, C1R, or fibroblast lines; made in house; host or cells: EBV transformed homozygous cell lines or single MHC allele transfected 721.221, C1R, or fibroblast lines
Experimental: (§3) Fifteen distinct HLA-DR molecules were used in quantitative assays to measure the binding of peptides to solubilized HLA-DR molecules. […] Briefly, columns of inactivated Sepharose CL4B and Protein A Sepharose were used as pre-columns. HLA-DR molecules were captured by passage of lysates over LB3.1 monoclonal antibody (anti-HLA-DRA) columns. Antibody columns were washed with 10 mM Tris-HCL, pH8.0 with 1% (v/v) NP-40, followed by PBS containing 0.4% (w/v) n-octylglucoside.
(§4) Briefly, 1-10 nM of radiolabeled peptide was co-incubated for 2 days at either room temperature or 37° C. with 1 μM to 1 nM purified HLA-DR molecules in the presence of a cocktail of protease inhibitors. Assays were performed at various pH conditions, ranging from pH 4 to pH 7. […] After incubation, the percentage of HLA-DR-bound radioactivity is determined by capturing HLA-DR/peptide complexes on Optiplates (Packard Instruments, Meriden, Conn.) coated with the LB3.1 antibody and determining bound counts per minute using the TopCount microscintillation counter (Packard Instruments).

[7] = biological target: T7, purified HLA DRB1*1302 (Homo sapiens, UniProt P01903+P01911, A100E/A169T/K41T/L162R/M171V/P40S/Q125H/Q178H/Q39Y/Q99D/R42S/S66N/T262R/V115G/W38E/Y61H); assay: HLA-DR radioligand binding inhibition assay, DRB1*1302; settings: column 6 of second part of Table I
T7 construct: MHC molecules utilized were purified from EBV transformed homozygous cell lines or single MHC allele transfected 721.221, C1R, or fibroblast lines; made in house; host or cells: EBV transformed homozygous cell lines or single MHC allele transfected 721.221, C1R, or fibroblast lines
T7 sequence (P01903 26-254, other chains not shown): as above
Experimental: as §3, §4

IC50 [1]: > 20 µM
Compound: CSCC[C@H](NC(=O)[C@H](CCCNC(=N)N)NC(=O)[C@H](CO)NC(=O)[C@H](Cc1ccccc1)NC(=O)[C@H](CCC(=O)O)NC(=O)[C@H](CO)NC(=O)[C@@H](NC(=O)[C@H](CC(C)C)NC(=O)[C@H](CCC(=O)O)NC(=O)[C@H](CCCNC(=N)N)NC(=O)[C@H](Cc1ccccc1)NC(=O)[C@H](CCCNC(=N)N)NC(=O)[C@@H]1CCCN1C(=O)[C@@H](N)CCCNC(=N)N)C(C)C)C(=O)N[C@@H](C)C(=O)O [Peptide 9019.0095]

IC50 [2]: > 20 µM
Compound: CC(C)C[C@H](NC(=O)[C@@H]1CCCN1C(=O)[C@H](CO)NC(=O)[C@@H]1CCCN1C(=O)[C@H](CC(=O)O)NC(=O)[C@H](Cc1c[nH]cn1)NC(=O)[C@@H](NC(=O)[C@@H]1CCCN1C(=O)[C@H](CC(C)C)NC(=O)[C@H](CO)NC(=O)[C@H](CCC(N)=O)NC(=O)[C@H](CC(C)C)NC(=O)CNC(=O)[C@H](CCCCN)NC(=O)[C@H](C)N)[C@@H](C)O)C(=O)O [Peptide 9019.0098]

IC50 [2]: 10.2 µM
Compound: CC[C@H](C)[C@H](NC(=O)[C@@H](NC(=O)[C@H](Cc1ccc(O)cc1)NC(=O)CN)C(C)C)C(=O)NCC(=O)N[C@H](C(=O)N[C@@H](CCC(N)=O)C(=O)N[C@@H](CCC(N)=O)C(=O)N[C@@H](C)C(=O)N[C@H](C(=O)N1CCC[C@H]1C(=O)NCC(=O)N1CCC[C@H]1C(=O)N[C@@H](C)C(=O)N[C@@H](Cc1ccc(O)cc1)C(=O)O)[C@@H](C)O)[C@@H](C)O [Peptide 9019.0110]

IC50 [2]: 17 µM
IC50 [3]: > 20 µM
IC50 [4]: > 20 µM
Compound: CC[C@H](C)[C@H](NC(=O)[C@H](CCCCN)NC(=O)[C@H](CCCNC(=N)N)NC(=O)[C@@H](N)CCSC)C(=O)N[C@H](C(=O)N[C@@H](C)C(=O)N[C@H](C(=O)N[C@@H](Cc1c[nH]c2ccccc12)C(=O)N[C@@H](CCSC)C(=O)N[C@@H](CC(C)C)C(=O)N[C@@H](CCC(=O)O)C(=O)N[C@H](C(=O)N[C@@H](CS)C(=O)N[C@@H](CCC(=O)O)C(=O)N[C@@H](CCC(=O)O)C(=O)O)C(C)C)[C@@H](C)O)C(C)C [Peptide 9019.0151]

IC50 [5]: > 20 µM
IC50 ([4]; read-out: IC50 to purified HLA DRB1*0404, purified HLA DRB1*0404): 13.1 µM
Compound: CSCC[C@H](NC(=O)[C@H](CCCNC(=N)N)NC(=O)[C@H](C)NC(=O)CN)C(=O)N1CCC[C@H]1C(=O)N[C@@H](CS)C(=O)N[C@@H](C)C(=O)N[C@@H](CCC(=O)O)C(=O)N[C@@H](CC(C)C)C(=O)N[C@H](C(=O)N[C@@H](CCCNC(=N)N)C(=O)N[C@@H](CCC(=O)O)C(=O)N1CCC[C@H]1C(=O)NCC(=O)N[C@@H](CS)C(=O)O)C(C)C [Peptide 9019.0181]

IC50 [6]: > 20 µM
IC50 [7]: > 20 µM
Compound: KELAVFREKVTEQHR [Peptide 9019.0186]
